Toxic doses and inconclusive results are not listed.
Tested on: CD2F1 mice, L1210 leukemia ip, survival T/C
Experiment: NCI In Vivo Anticancer Drug Screen. Data for tumor model L1210 Leukemia (intraperitoneal) in CD2F1 (CDF1) mice
Conditions: higher = longer survival
In short: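 Tumor-bearing mice (transplanted tumor) were split into treated and vehicle control groups, and the measured endpoint of each treated group was divided by that of its vehicle controls.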

[1] = endpoint: mean survival time, dose: 100.0 mg/kg/injection, schedule: Q01DX009 (ip), vehicle: saline with Tween-80
[2] = endpoint: mean survival time, dose: 200.0 mg/kg/injection, schedule: Q01DX009 (ip), vehicle: saline with Tween-80

`N=C(N)SCc1c2ccccc2c(CSC(=N)N)c2ccccc12` was tested, and the T/C (endpoint: mean survival time, dose: 0.06 mg/kg/injection, schedule: Q#B X Z (ip), vehicle: saline) was 109 % of control, the T/C (endpoint: mean survival time, dose: 0.13 mg/kg/injection, schedule: Q#B X Z (ip), vehicle: saline) was 121 % of control and the T/C (endpoint: mean survival time, dose: 0.39 mg/kg/injection, schedule: Q01DX Z (ip), vehicle: saline) was 115 % of control. For the same compound, the T/C (endpoint: mean survival time, dose: 0.78 mg/kg/injection, schedule: Q01DX Z (ip), vehicle: saline) was 121 % of control, the T/C (endpoint: mean survival time, dose: 1.04 mg/kg/injection, schedule: Q#B X Z (ip), vehicle: saline) was 155 % of control and the T/C (endpoint: mean survival time, dose: 2.08 mg/kg/injection, schedule: Q#B X Z (ip), vehicle: saline) was 160 % of control. For the same compound, the T/C (endpoint: mean survival time, dose: 3.13 mg/kg/injection, schedule: Q01DX Z (ip), vehicle: saline) was 151 % of control, the T/C (endpoint: mean survival time, dose: 6.25 mg/kg/injection, schedule: Q01DX Z (ip), vehicle: saline) was 162 % of control and the T/C (endpoint: mean survival time, dose: 8.33 mg/kg/injection, schedule: Q#B X Z (ip), vehicle: saline) was 119 % of control. The T/C (endpoint: mean survival time, dose: 12.5 mg/kg/injection, schedule: Q01DX Z (ip), vehicle: saline) was 156 % of control, the T/C (endpoint: mean survival time, dose: 16.66 mg/kg/injection, schedule: Q#B X Z (ip), vehicle: saline) was 98 % of control and the T/C (endpoint: mean survival time, dose: 25.0 mg/kg/injection, schedule: Q01DX Z (ip), vehicle: saline) was 155 % of control. For the same compound, the T/C (endpoint: mean survival time, dose: 50.0 mg/kg/injection, schedule: Q01DX001 (ip), vehicle: saline) was 158 % of control, the T/C (endpoint: mean survival time, dose: 50.0 mg/kg/injection, schedule: Q03HX008 (ip), vehicle: saline) was 178 % of control and the T/C (endpoint: mean survival time, dose: 50.0 mg/kg/injection, schedule: Q03HX016 (ip), vehicle: saline) was 175 % of control. The T/C (endpoint: mean survival time, dose: 50.0 mg/kg/injection, schedule: Q06HX004 (ip), vehicle: saline) was 151 % of control, the T/C (endpoint: mean survival time, dose: 50.0 mg/kg/injection, schedule: Q08DX002 (ip), vehicle: saline) was 174 % of control and the T/C (endpoint: mean survival time, dose: 50.0 mg/kg/injection, schedule: Q12HX002 (ip), vehicle: saline) was 173 % of control. For the same compound, the T/C (endpoint: mean survival time, dose: 50.0 mg/kg/injection, schedule: Q12HX004 (ip), vehicle: saline) was 189 % of control, the T/C (endpoint: mean survival time, dose: 80.0 mg/kg/injection, schedule: Q01DX001 (ip), vehicle: saline) was 168 % of control and the T/C (endpoint: mean survival time, dose: 100.0 mg/kg/injection, schedule: Q01DX001 (ip), vehicle: saline) was 193 % of control. For the same compound, the T/C (endpoint: mean survival time, dose: 100.0 mg/kg/injection, schedule: Q01DX009 (ip), vehicle: saline) was 154 % of control, the T/C (endpoint: mean survival time, dose: 100.0 mg/kg/injection, schedule: Q01DX Z (ip), vehicle: saline) was 124 % of control and the T/C (endpoint: mean survival time, dose: 100.0 mg/kg/injection, schedule: Q03HX008 (ip), vehicle: saline) was 196 % of control. The T/C (endpoint: mean survival time, dose: 100.0 mg/kg/injection, schedule: Q03HX016 (ip), vehicle: saline) was 194 % of control, the T/C (endpoint: mean survival time, dose: 100.0 mg/kg/injection, schedule: Q08DX002 (ip), vehicle: saline) was 220 % of control and the T/C (endpoint: mean survival time, dose: 100.0 mg/kg/injection, schedule: Q12HX002 (ip), vehicle: saline) was 239 % of control. The T/C (endpoint: mean survival time, dose: 100.0 mg/kg/injection, schedule: Q12HX004 (ip), vehicle: saline) was 224 % of control, the T/C (endpoint: mean survival time, dose: 125.0 mg/kg/injection, schedule: Q01DX001 (ip), vehicle: saline) was 113 % of control and the T/C (endpoint: mean survival time, dose: 200.0 mg/kg/injection, schedule: Q01DX001 (ip), vehicle: saline) was 227 % of control. For the same compound, the T/C (endpoint: mean survival time, dose: 200.0 mg/kg/injection, schedule: Q01DX009 (ip), vehicle: saline) was 106 % of control, the T/C (endpoint: mean survival time, dose: 200.0 mg/kg/injection, schedule: Q01DX010 (oral), vehicle: saline) was 94 % of control and the T/C (endpoint: mean survival time, dose: 200.0 mg/kg/injection, schedule: Q01DX Z (ip), vehicle: saline) was 88 % of control. For the same compound, the T/C (endpoint: mean survival time, dose: 200.0 mg/kg/injection, schedule: Q03HX008 (ip), vehicle: saline) was 207 % of control, the T/C (endpoint: mean survival time, dose: 200.0 mg/kg/injection, schedule: Q03HX016 (ip), vehicle: saline) was 204 % of control and the T/C (endpoint: mean survival time, dose: 200.0 mg/kg/injection, schedule: Q06HX008 (ip), vehicle: saline) was 179 % of control. The T/C (endpoint: mean survival time, dose: 200.0 mg/kg/injection, schedule: Q08DX002 (ip), vehicle: saline) was 197 % of control, the T/C (endpoint: mean survival time, dose: 200.0 mg/kg/injection, schedule: Q12HX002 (ip), vehicle: saline) was 254 % of control and the T/C (endpoint: mean survival time, dose: 200.0 mg/kg/injection, schedule: Q12HX004 (ip), vehicle: saline) was 158 % of control. For the same compound, the T/C (endpoint: mean survival time, dose: 320.0 mg/kg/injection, schedule: Q01DX001 (ip), vehicle: saline) was 100 % of control, the T/C (endpoint: mean survival time, dose: 400.0 mg/kg/injection, schedule: Q01DX010 (oral), vehicle: saline) was 90 % of control and the T/C (endpoint: mean survival time, dose: 400.0 mg/kg/injection, schedule: Q03HX016 (ip), vehicle: saline) was 111 % of control. For the same compound, the T/C (endpoint: mean survival time, dose: 400.0 mg/kg/injection, schedule: Q06HX004 (ip), vehicle: saline) was 183 % of control, the T/C (endpoint: mean survival time, dose: 400.0 mg/kg/injection, schedule: Q06HX008 (ip), vehicle: saline) was 152 % of control and the T/C (endpoint: mean survival time, dose: 400.0 mg/kg/injection, schedule: Q08DX002 (ip), vehicle: saline) was 152 % of control. For the same compound, the T/C (endpoint: mean survival time, dose: 400.0 mg/kg/injection, schedule: Q12HX004 (ip), vehicle: saline) was 118 % of control, the T/C (endpoint: mean survival time, dose: 800.0 mg/kg/injection, schedule: Q01DX010 (oral), vehicle: saline) was 88 % of control and the T/C (endpoint: mean survival time, dose: 1000.0 mg/kg/injection, schedule: Q01DX001 (ip), vehicle: saline) was 162 % of control.
With `OCCOc1ccc(Cl)cc1Cl` the T/C (endpoint: mean survival time, dose: 75.0 mg/kg/injection, schedule: Q04DX003 (ip), vehicle: saline with Tween-80) was 98 % of control, the T/C (endpoint: mean survival time, dose: 150.0 mg/kg/injection, schedule: Q04DX003 (ip), vehicle: saline with Tween-80) was 97 % of control and the T/C (endpoint: mean survival time, dose: 300.0 mg/kg/injection, schedule: Q04DX003 (ip), vehicle: saline with Tween-80) was 98 % of control.
In the case of `O=C(N/N=C/c1ccc(O)cc1O)c1cccnc1`, the T/C (endpoint: mean survival time, dose: 6.25 mg/kg/injection, schedule: Q01DX009 (ip), vehicle: olive oil, sesame oil, peanut oil) is reported as 102 % of control, the T/C (endpoint: mean survival time, dose: 12.5 mg/kg/injection, schedule: Q01DX009 (ip), vehicle: olive oil, sesame oil, peanut oil) is reported as 98 % of control and the T/C (endpoint: mean survival time, dose: 25.0 mg/kg/injection, schedule: Q01DX009 (ip), vehicle: olive oil, sesame oil, peanut oil) is reported as 98 % of control. For the same compound, the T/C (endpoint: mean survival time, dose: 50.0 mg/kg/injection, schedule: Q01DX009 (ip), vehicle: olive oil, sesame oil, peanut oil) was 98 % of control and the T/C (endpoint: mean survival time, dose: 100.0 mg/kg/injection, schedule: Q01DX009 (ip), vehicle: olive oil, sesame oil, peanut oil) was 100 % of control.
For `CC[CH2][Sn]([CH2]CC)([CH2]CC)[O][Sn]([CH2]CC)([CH2]CC)[CH2]CC`, the T/C (endpoint: mean survival time, dose: 125.0 micrograms/kg/injection, schedule: Q01DX009 (ip), vehicle: saline) was 95 % of control, the T/C (endpoint: mean survival time, dose: 250.0 micrograms/kg/injection, schedule: Q01DX009 (ip), vehicle: saline) was 95 % of control and the T/C (endpoint: mean survival time, dose: 500.0 micrograms/kg/injection, schedule: Q01DX009 (ip), vehicle: saline) was 106 % of control. For the same compound, the T/C (endpoint: mean survival time, dose: 1000.0 micrograms/kg/injection, schedule: Q01DX009 (ip), vehicle: saline) was 93 % of control.
`COc1ccn(C2OC(=O)C(C)(C)C2=O)c(=O)n1` (configuration not stated) was tested, and the T/C (endpoint: median survival time, dose: 12.5 mg/kg/injection, schedule: Q01DX005 (ip), vehicle: saline) was 101 % of control, the T/C (endpoint: median survival time, dose: 25.0 mg/kg/injection, schedule: Q01DX005 (ip), vehicle: saline) was 100 % of control and the T/C (endpoint: median survival time, dose: 50.0 mg/kg/injection, schedule: Q01DX005 (ip), vehicle: saline) was 101 % of control. The T/C (endpoint: median survival time, dose: 100.0 mg/kg/injection, schedule: Q01DX005 (ip), vehicle: saline) was 101 % of control and the T/C (endpoint: median survival time, dose: 200.0 mg/kg/injection, schedule: Q01DX005 (ip), vehicle: saline) was 100 % of control.
With `CC(C)OC(=O)C12Oc3ccc(-c4ccc5c(c4O)C(O)=C4C(=O)CC(C)C(O)C4(C(=O)OC(C)C)O5)c(O)c3C(O)=C1C(=O)CC(C)C2O` (configuration not stated) the T/C (endpoint: mean survival time, dose: 1.25 mg/kg/injection, schedule: Q01DX009 (ip), vehicle: saline with Tween-80) was 102 % of control, the T/C (endpoint: mean survival time, dose: 2.5 mg/kg/injection, schedule: Q01DX009 (ip), vehicle: saline with Tween-80) was 95 % of control and the T/C (endpoint: mean survival time, dose: 5.0 mg/kg/injection, schedule: Q01DX009 (ip), vehicle: saline with Tween-80) was 98 % of control.
In the case of `COc1ccc(NC(=S)/C(=C(\[O-])c2ccc([N+](=O)[O-])cc2)[n+]2ccc(C(C)C)cc2)cc1`, the T/C [1] is reported as 91 % of control and the T/C [2] is reported as 97 % of control.
With `ClCC1C(CCl)C2(Cl)C(Cl)=C(Cl)C1(Cl)C2(Cl)Cl` (configuration not stated) the T/C [1] was 100 % of control, the T/C (endpoint: mean survival time, dose: 100.0 mg/kg/injection, schedule: Q04DX003 (ip), vehicle: saline with Tween-80) was 93 % of control and the T/C [2] was 98 % of control. For the same compound, the T/C (endpoint: mean survival time, dose: 200.0 mg/kg/injection, schedule: Q04DX003 (ip), vehicle: saline with Tween-80) was 95 % of control, the T/C (endpoint: mean survival time, dose: 400.0 mg/kg/injection, schedule: Q01DX009 (ip), vehicle: saline with Tween-80) was 93 % of control and the T/C (endpoint: mean survival time, dose: 400.0 mg/kg/injection, schedule: Q04DX003 (ip), vehicle: saline with Tween-80) was 93 % of control.
With `COc1ccc2c[n+](C)c3c4cc(OC)c(OC)cc4ccc3c2c1` the T/C (endpoint: mean survival time, dose: 25.0 mg/kg/injection, schedule: Q04DX003 (ip), vehicle: saline with Tween-80) was 96 % of control.

Reference: PubChem BioAssay AID256 (DTP/NCI, 2004)
